Source: ChEMBL document CHEMBL1137265, “Macrolactin N, a new peptide deformylase inhibitor produced by Bacillus subtilis” (Bioorg Med Chem Lett, 2006)
≈ marks a conversion by molar mass, not a printed value.

Legend:
Peptide deformylase = target: T1, Peptide deformylase (Staphylococcus aureus, UniProt P68826); test: Inhibition of Staphylococcus aureus peptide deformylase in presence of substrate f-MAS
T1 sequence (P68826 whole entry): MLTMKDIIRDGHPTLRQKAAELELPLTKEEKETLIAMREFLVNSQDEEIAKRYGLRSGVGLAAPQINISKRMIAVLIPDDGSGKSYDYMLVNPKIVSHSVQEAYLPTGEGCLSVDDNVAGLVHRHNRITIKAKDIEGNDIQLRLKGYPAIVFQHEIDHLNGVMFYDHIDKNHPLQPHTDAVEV

Bacillus subtilis = test: Antibacterial activity against Bacillus subtilis KCTC 1021 by microdilution broth method; format: functional
Staphylococcus aureus = test: Antibacterial activity against Staphylococcus aureus RN4220 by microdilution broth method; format: functional
Escherichia coli = test: Antibacterial activity against Escherichia coli KCTC 1924 by microdilution broth method; format: functional

CC1CCC/C=C/CCC(=O)CCC/C=C\C=C\[C@@H](O)C/C=C/C=C\C(=O)O1 (some centres undefined)
IC50 (Peptide deformylase): 7.5 µM
MIC50 (Bacillus subtilis): 100 µg/mL (≈ 259 µM)
MIC50 (Staphylococcus aureus): 100 µg/mL (≈ 259 µM)
MIC (Escherichia coli): 100 µg/mL (≈ 259 µM)
